From patent EP0089940A1, “Compositions for therapeutic or diagnostic use containing oligosaccharides” (priority 1982, dated 1983)

Key:
K88 fimbriae = molecular target: T1, K88 fimbriae (Escherichia coli, UniProt P14190); experiment: Inhibition of adherence of I125-labelled K88-fimbriae to brush border membranes from pig small intestine; assay type: binding, E.coli; conditions: for inhibition at 5000 µg/mL: read-out: inhibited the adherence of K88 fimbriae to the brush border membranes; for inhibited the adherence of K88 fimbriae to the brush border membranes: 0.5 ml oligosaccharide solution 5 mg/ml in PBS, 0.5 ml I125-labelled K88 fimbriae 0.5 mg/ml, 1 ml brush border membranes 2 · 10^6 cells/ml, 37°C
T1 construct: In the experiments I^125-labelled K88 fimbriae at a concentration of 0.5 mg/ml in PBS were used; made in house; host or cells: E. coli O149 K88+ (native fimbriae isolated from the bacteria)
Description: In the experiments I^125-labelled K88 fimbriae at a concentration of 0.5 mg/ml in PBS were used. Moreover, brush border membranes prepared according to Sellwood et al at a concentration of 2 · 10^6 cells/ml in PBS were used.
Oligosaccharides tested for their inhibiting ability were dissolved in PBS to a concentration of 5 mg/ml.
In the inhibition tests 0.5 ml I125-labelled K88 fimbriae was incubated with 0.5 ml oligosaccharide solution at 37°C for 30 minutes, 1 ml of the suspension of brush border membranes being then added. After incubation for another 60 minutes at 37°C the mixture was centrifuged for 15 minutes at 600 x g, the radioactivity being then measured in the supernatant. As a control 1 ml of PBS was used.

E.coli = experiment: Disinfection: removal of bacteria from an infected surface; conditions: 0.1 percent by weight aqueous solution applied by cotton pad onto a surface infected by E.coli
Description: By disinfection is here primarily intended removal of bacteria from a surface, for example a wound.
A 0.1 percent by weight aqueous solution of the compound a-D-Galp-(1-3)-D-Gal is prepared and applied by means of a cotton pad onto a surface infected by E.coli.

T1 sequence (P14190 22-283 limits assumed): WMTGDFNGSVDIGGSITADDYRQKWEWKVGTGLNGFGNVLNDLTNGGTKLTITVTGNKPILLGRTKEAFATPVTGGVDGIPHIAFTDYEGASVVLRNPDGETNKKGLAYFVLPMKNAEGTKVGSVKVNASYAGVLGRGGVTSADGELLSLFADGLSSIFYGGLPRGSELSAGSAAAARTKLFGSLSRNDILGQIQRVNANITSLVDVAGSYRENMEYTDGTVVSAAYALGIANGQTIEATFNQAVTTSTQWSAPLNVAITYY

**Q.** `OC[C@H]1O[C@H](O[C@H]2[C@@H](O)[C@@H](CO)OC(O)[C@@H]2O)[C@H](O)[C@@H](O)[C@H]1O` (stereo partly drawn) [α-D-Galp-(1-3)-D-Gal] was tested. Which inhibition at 5000 µg/mL (K88 fimbriae) did it give?
**A.** 70%

**Q.** What about the “removal of the bacterium from the surface” value (E.coli) of the same compound?
**A.** effective removal

**Q.** For `OC[C@H]1O[C@H](O[C@H]2[C@@H](O)[C@@H](CO)O[C@H](O[C@H]3[C@@H](O)[C@@H](CO)O[C@H](O[C@H]4[C@@H](O)[C@@H](CO)OC(O)[C@@H]4O)[C@@H]3O)[C@@H]2O)[C@H](O)[C@@H](O)[C@H]1O` (stereo partly drawn) [α-D-Galp-(1-3)-α-D-Galp-(1-3)-α-D-Galp-(1-3)-D--Gal], which inhibition at 5000 µg/mL (K88 fimbriae) is on record?
**A.** 73%

**Q.** How did the “inhibited the adherence of K88 fimbriae to the brush border membranes” value (K88 fimbriae) turn out when `OC[C@H]1O[C@H](OC[C@H]2OC(O)[C@H](O)[C@@H](O)[C@H]2O)[C@H](O)[C@@H](O)[C@H]1O` (stereo partly drawn) [α-D-Galp-(1-6)-D-Gal, reference compound] was run?
**A.** inactive

**Q.** Which inhibition at 5000 µg/mL (K88 fimbriae) does the source give for `OC[C@H]1O[C@H](O[C@H]2[C@@H](O)[C@@H](CO)O[C@H](O[C@H]3[C@@H](O)[C@@H](CO)OC(O)[C@@H]3O)[C@@H]2O)[C@H](O)[C@@H](O)[C@H]1O` (stereo partly drawn) [α-D-Galp-(1-3)-α-D-Galp-(1-3)-D-Gal] here?
**A.** 79%

**Q.** Which “inhibited the adherence of K88 fimbriae to the brush border membranes” value (K88 fimbriae) does the source give for `OC[C@H]1O[C@H](O[C@@H]2[C@H](O)[C@@H](O)C(O)O[C@@H]2CO)[C@H](O)[C@@H](O)[C@H]1O` (stereo partly drawn) [α-D-Galp-(1-4)-D-Gal, reference compound] here?
**A.** inactive
